In PMC6407917, “Identification of GSK3186899/DDD853651 as a Preclinical Development Candidate for the Treatment of Visceral Leishmaniasis” (Journal of Medicinal Chemistry, 2018):

Columns and labels:
Assay in all cases: biochemical
Design in all cases: species or system HEK293/K-562/placenta mixed human extract; Kinobeads chemoproteomic competition binding, quantified by TMT LC-MS/MS, dose response up to 20 uM
DAPK3 = DAPK3 (Homo sapiens, UniProt O43293)
HIPK1 = HIPK1 (Homo sapiens, UniProt Q86Z02)
MARK2 = MARK2 (Homo sapiens, UniProt Q7KZI7)
CDK7 = CDK7 (Homo sapiens, UniProt P50613)
PLK1 = PLK1 (Homo sapiens, UniProt P53350)
CDC37 = CDC37 (Homo sapiens, UniProt Q16543)
KIT = KIT (Homo sapiens, UniProt P10721)
MAP3K15 = MAP3K15 (Homo sapiens, UniProt Q6ZN16)
BRAF = BRAF (Homo sapiens, UniProt P15056)
NLK = NLK (Homo sapiens, UniProt Q9UBE8)
STRADA = STRADA (Homo sapiens, UniProt Q7RTN6)
MAST2 = MAST2 (Homo sapiens, UniProt Q6P0Q8)
PIM2 = PIM2 (Homo sapiens, UniProt Q9P1W9)
PIM3 = PIM3 (Homo sapiens, UniProt Q86V86)
RPS6KA2 = RPS6KA2 (Homo sapiens, UniProt Q15349)
MAP2K3 = MAP2K3 (Homo sapiens, UniProt P46734)
IRAK4 = IRAK4 (Homo sapiens, UniProt Q9NWZ3)
NRK = NRK (Homo sapiens, UniProt Q7Z2Y5)
MARK3 = MARK3 (Homo sapiens, UniProt P27448)
TESK1 = TESK1 (Homo sapiens, UniProt Q15569)
MYLK3 = MYLK3 (Homo sapiens, UniProt Q32MK0)

Measured: IC50

Sequence of KIT (P10721 whole entry): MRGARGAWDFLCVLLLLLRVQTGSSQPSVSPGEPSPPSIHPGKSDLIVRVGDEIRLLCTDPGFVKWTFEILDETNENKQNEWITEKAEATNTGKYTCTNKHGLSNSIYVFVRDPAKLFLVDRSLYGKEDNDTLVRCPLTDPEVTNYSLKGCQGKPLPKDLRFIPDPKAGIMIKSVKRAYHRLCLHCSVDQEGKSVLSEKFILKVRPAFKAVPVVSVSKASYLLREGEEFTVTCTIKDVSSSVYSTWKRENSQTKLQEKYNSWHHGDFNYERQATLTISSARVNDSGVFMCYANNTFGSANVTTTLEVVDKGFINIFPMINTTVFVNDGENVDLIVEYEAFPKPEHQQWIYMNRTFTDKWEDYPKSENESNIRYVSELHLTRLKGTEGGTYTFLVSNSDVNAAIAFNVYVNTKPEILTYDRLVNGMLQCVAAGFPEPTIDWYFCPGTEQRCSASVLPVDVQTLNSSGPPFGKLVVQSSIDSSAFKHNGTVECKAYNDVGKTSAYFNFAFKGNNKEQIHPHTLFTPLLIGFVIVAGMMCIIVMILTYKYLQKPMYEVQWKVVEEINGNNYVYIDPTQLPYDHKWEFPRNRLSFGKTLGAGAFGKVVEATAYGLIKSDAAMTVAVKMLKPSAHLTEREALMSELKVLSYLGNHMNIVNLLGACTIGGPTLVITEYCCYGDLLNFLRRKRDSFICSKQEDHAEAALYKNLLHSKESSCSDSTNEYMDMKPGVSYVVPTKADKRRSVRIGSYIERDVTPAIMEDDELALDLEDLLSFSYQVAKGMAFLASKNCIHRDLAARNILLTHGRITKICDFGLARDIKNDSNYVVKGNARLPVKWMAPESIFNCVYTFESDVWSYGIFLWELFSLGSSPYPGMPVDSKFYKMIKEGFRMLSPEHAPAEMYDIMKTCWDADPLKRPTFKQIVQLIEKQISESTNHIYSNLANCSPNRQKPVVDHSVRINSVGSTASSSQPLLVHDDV
Sequence of MYLK3 (Q32MK0 whole entry): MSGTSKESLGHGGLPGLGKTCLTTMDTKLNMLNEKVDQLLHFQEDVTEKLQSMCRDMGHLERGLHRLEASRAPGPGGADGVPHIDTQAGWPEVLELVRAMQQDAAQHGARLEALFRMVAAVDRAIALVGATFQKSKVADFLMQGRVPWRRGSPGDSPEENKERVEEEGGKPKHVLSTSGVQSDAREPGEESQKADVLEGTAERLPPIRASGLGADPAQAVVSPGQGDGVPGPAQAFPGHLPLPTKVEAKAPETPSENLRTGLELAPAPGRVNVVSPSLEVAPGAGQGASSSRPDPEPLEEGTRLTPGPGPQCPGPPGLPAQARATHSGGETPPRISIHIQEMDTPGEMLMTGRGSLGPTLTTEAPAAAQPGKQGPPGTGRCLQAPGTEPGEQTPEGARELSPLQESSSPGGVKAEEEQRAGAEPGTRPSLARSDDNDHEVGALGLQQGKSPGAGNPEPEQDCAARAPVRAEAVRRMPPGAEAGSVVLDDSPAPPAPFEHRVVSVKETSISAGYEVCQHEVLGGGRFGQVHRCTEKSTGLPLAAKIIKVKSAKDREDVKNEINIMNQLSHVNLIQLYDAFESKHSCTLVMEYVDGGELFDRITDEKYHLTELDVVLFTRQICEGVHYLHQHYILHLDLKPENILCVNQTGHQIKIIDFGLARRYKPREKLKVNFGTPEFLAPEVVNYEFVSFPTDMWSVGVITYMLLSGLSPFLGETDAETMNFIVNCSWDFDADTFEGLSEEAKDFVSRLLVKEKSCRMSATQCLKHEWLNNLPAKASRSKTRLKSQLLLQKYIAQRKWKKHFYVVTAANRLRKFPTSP
Sequence of IRAK4 (Q9NWZ3 whole entry): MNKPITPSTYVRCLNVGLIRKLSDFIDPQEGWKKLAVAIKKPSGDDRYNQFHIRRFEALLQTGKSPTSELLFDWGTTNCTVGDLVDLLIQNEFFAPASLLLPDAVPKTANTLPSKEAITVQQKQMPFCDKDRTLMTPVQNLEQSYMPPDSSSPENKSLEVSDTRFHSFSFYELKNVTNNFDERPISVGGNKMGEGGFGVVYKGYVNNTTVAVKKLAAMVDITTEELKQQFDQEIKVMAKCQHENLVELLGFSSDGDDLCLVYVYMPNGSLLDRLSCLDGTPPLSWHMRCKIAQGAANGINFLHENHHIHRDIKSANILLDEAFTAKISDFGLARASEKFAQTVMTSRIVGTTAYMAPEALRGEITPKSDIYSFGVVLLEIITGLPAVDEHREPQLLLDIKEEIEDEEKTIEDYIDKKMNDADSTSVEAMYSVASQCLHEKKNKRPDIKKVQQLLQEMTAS
Sequence of RPS6KA2 (Q15349 whole entry): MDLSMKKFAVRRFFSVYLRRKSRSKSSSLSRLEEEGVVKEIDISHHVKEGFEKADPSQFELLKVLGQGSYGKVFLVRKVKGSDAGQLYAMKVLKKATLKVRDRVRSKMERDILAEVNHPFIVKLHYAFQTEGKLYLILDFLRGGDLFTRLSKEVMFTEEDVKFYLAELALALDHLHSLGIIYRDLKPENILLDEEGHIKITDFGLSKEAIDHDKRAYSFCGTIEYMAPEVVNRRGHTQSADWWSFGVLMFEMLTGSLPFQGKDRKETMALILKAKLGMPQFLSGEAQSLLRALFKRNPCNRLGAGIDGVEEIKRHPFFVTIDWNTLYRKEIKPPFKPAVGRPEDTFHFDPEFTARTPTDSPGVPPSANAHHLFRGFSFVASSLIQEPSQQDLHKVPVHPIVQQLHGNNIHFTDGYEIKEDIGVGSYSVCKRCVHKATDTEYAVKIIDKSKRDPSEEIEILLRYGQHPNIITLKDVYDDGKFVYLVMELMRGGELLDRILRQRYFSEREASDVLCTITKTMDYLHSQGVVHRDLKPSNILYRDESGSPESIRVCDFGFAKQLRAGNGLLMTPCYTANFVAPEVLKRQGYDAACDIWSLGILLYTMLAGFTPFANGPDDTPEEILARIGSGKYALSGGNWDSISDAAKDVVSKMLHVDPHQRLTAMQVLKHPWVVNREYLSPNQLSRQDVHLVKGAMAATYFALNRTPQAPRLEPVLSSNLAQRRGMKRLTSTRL
Sequence of PLK1 (P53350 whole entry): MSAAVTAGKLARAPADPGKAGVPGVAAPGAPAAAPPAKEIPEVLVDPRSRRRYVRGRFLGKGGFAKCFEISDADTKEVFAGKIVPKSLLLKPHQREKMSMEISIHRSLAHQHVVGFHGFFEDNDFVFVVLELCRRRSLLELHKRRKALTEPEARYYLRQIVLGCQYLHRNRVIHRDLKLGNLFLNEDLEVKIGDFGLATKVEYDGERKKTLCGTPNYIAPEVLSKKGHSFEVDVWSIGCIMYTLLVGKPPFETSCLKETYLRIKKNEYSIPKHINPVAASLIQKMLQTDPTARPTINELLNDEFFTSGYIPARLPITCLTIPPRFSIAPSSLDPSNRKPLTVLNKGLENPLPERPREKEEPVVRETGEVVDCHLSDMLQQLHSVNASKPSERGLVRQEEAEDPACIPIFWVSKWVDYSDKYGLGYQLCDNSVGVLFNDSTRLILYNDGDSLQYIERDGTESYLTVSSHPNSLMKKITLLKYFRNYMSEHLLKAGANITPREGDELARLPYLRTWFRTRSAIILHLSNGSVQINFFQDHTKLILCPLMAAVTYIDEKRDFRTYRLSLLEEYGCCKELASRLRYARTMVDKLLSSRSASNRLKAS
Sequence of CDC37 (Q16543 whole entry): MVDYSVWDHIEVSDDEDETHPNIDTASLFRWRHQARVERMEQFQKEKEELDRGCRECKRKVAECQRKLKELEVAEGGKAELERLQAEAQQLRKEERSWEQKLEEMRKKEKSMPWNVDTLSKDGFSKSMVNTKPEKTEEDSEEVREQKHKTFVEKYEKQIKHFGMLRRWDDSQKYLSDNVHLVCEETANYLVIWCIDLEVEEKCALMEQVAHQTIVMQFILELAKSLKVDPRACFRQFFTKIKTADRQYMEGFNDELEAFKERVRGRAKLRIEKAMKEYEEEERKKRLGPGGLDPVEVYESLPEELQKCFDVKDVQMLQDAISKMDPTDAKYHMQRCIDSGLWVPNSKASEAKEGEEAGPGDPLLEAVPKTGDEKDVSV
Sequence of MARK3 (P27448 whole entry): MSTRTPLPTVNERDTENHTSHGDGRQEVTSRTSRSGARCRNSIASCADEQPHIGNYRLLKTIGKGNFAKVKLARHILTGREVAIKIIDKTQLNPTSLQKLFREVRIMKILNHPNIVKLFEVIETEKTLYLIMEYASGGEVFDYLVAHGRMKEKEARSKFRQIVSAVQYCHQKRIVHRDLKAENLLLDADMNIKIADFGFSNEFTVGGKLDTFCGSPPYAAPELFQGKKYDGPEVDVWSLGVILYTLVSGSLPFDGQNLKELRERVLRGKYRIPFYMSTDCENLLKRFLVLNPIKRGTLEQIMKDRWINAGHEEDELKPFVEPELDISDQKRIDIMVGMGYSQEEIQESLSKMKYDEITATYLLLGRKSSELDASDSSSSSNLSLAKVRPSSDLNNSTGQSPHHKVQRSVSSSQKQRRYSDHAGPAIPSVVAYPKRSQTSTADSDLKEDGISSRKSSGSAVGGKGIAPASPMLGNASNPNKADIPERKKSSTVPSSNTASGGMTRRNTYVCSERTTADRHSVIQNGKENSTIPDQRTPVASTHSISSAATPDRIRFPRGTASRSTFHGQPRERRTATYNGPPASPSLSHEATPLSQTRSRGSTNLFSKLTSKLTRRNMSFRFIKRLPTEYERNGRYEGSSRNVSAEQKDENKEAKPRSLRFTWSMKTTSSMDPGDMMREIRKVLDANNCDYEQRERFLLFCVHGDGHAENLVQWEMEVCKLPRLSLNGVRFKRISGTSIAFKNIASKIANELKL

COc1ccccc1-c1n[nH]c2nc(N[C@H]3CC[C@H](NS(=O)(=O)CCC(F)(F)F)CC3)nc(OC)c12 [compound 31, 3,3,3-Trifluoro-N-(trans-4-((4-methoxy-3-(2-methoxyphenyl)-1H-pyrazolo[3,4-d]pyrimidin-6-yl)amino)cyclohexyl)propane-1-sulfonamide]
3.4 µM: NLK
≥ 20 µM: all other assays above
